Test results: patent US20100056622A1, “Methods of Using Ramelteon to Treat Patients Suffering from a Variety of Neurodegenerative Diseases” (priority 2008, published 2010)

Assays:
melatonin-1 receptor = melatonin-1 receptor (Homo sapiens, UniProt P48039); conditions: cited from earlier work
[1] = test system: patient with Probable Parkinson's Disease Dementia; assay: Case report Example 3: ramelteon in a patient with Parkinson Disease and Probable Parkinson's Disease Dementia (person); type: in vivo, human; conditions: 10 weeks
Method: A person with an 18 year history of Parkinson Disease with subsequent development of Probable Parkinson's Disease Dementia was treated with ramelteon. The patient presented was experiencing dementia (i.e., memory loss, inattention, and dysexecutive syndrome), initial and interval insomnia, and typical features of Parkinson's disease (i.e., bradykinesia, rigidity, resting tremor, and postural instability). The patient was started on ramelteon, 8 mg each night at bedtime, and was seen again 10 weeks later. DRS-2 Initiation (i.e., categorical naming reflecting temporal lobe function) improved from a score of 31 to 34, Controlled Oral Word Association Test S Subtest (i.e., naming reflecting frontal lobe function) from 14 to 17, CLOX 1 (i.e., reflecting executive function) from 6 to 8, and ADCS-ADL disability (i.e., reflecting ability to perform activities of daily living) from 43 to 47. Thus, treatment with ramelteon was associated with improvements in temporal and frontal lobe—related naming, executive function, and overall ability to cognitively function.

[2] = test system: patient with Probable Parkinson's Disease Dementia; assay: Case report Example 2: ramelteon in a patient with Probable Parkinson's Disease Dementia (person); type: in vivo, human; conditions: after 2 weeks
Method: A person with a 10 year history of Probable Parkinson's Disease Dementia was treated with ramelteon as follows. The patient presented for treatment was experiencing dementia EDS, REM behavior disorder (i.e., RBD, manifest in acting out their dreams while asleep), and symptoms of Parkinson's disease (e.g., bradykinesia, rigidity, resting tremor, and postural instability). […] After 2 weeks of treatment with ramelteon, 8 mg each night at bedtime, scores had improved on the ESS from 19 to 16, DRS-2 (DRS-2 Conceptualization score) improved from 35 to 38, Memory from 24 to 25, Total from 138 to 141, and Trails (Trails B 68 to 60, Trails B-Trails A 36 to 28). Thus, treatment with ramelteon led to demonstrable improvement in excessive daytime sleepiness, concept formation (i.e., similitudes and differences), memory (i.e., spontaneous recall, factual knowledge, and recognition), overall cognition, and measures of executive function.

[3] = test system: mouse cerebellar granule cells; conditions: cited from earlier work
[4] = test system: patient with Probable Dementia with Lewy Bodies; assay: Case report Example 1: ramelteon in a patient with Probable Dementia with Lewy Bodies; type: in vivo, human; conditions: 2 week follow-up
Method: A person with a 4 year history of Probable Dementia with Lewy Bodies was treated with ramelteon as follows. The patient presented for treatment was experiencing poor sleep (i.e., interval insomnia with only 3-4 hours of sleep at night), fatigue, weight loss, poor concentration, anhedonia, irritability, social withdrawal, but no depressive mood or depressive cognitions. The patient would nap for an hour in the afternoons, consistent with Excessive Daytime Somnolence (EDS), nocturnal insomnia, or dopamine agonist therapy. They admitted to some anxiety daily in the afternoons lasting up to an hour, but had no somatic symptoms with this. Confusion was mild, but occurred once daily, and they had hallucinated only once, 6 weeks previously. There was significant nocturnal incontinence associated with the insomnia, with 4 or more episodes per night. The Neuropsychiatric Inventory Questionnaire (NPI-Q) was administered with the result being a score of 11 (delusions 1, agitation 2, irritability 1, nighttime behaviors 6, appetite 1). The […] al. Apathy Scale was also administered with the result being a score of 31. Ramelteon was administered beginning at 8 mg at bedtime and increased after 3 days to 16 mg by mouth each night at bedtime. At a 2 week follow-up, the patient began sleeping 7 hours each night, with only 2 episodes of incontinence at night.

melatonin-2 receptor = target: T1, melatonin-2 receptor (Homo sapiens, UniProt P49286); conditions: cited from earlier work
T1 sequence (P49286 1-362): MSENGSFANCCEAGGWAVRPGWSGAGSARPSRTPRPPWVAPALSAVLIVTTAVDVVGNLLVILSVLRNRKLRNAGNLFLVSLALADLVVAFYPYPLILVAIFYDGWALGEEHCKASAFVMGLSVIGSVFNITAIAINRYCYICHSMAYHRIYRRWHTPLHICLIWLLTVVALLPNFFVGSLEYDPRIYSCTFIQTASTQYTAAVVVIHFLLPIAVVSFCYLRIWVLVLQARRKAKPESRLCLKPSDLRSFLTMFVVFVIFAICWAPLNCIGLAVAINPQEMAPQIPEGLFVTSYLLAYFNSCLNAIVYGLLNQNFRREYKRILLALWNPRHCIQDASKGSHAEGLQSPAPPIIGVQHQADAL

[5] = test system: liver function after hemorrhagic shock and reperfusion; conditions: rats; cited from earlier work

Chain of melatonin-1 receptor (P48039 whole entry): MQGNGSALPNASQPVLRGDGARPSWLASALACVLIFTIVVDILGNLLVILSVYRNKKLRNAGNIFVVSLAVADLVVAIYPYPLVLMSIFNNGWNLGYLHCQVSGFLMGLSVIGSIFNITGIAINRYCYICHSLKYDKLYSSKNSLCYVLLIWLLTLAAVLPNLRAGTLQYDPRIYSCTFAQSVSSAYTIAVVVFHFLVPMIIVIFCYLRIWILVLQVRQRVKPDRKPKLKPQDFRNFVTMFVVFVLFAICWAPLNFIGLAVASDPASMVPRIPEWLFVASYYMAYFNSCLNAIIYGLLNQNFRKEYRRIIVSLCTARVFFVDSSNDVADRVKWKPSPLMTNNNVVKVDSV

For `CCC(=O)NCC[C@@H]1CCc2ccc3c(c21)CCO3` [ramelteon, (S)—N-[2-(1,6,7,8-tetrahydro-2H-indeno-[5,4-b]furan-8-yl)ethyl]propionamide], the “agonist potency relative to melatonin” value (melatonin-1 receptor) is given as “more potent at these sites than melatonin itself”, the “CLOX 1” value ([1]; 8 mg at bedtime, before treatment 6) is given as 8 and the “Controlled Oral Word Association Test S Subtest” value ([1]; 8 mg at bedtime, before treatment 14) is given as 17. The “ADCS-ADL activities of daily living score” value ([1]; 8 mg at bedtime, before treatment 43) was 47, the “DRS-2 Initiation score” value ([1]; 8 mg each night at bedtime, before treatment 31) was 34 and the “DRS-2 Memory score” value ([2]; 8 mg at bedtime, before treatment 24) was 25. For the same compound, the “DRS-2 Conceptualization score” value ([2]; 8 mg at bedtime, before treatment 35) was 38, the “Trails B-Trails A” value ([2]; 8 mg at bedtime, before treatment 36) was 28 and the “Trails B” value ([2]; 8 mg at bedtime, before treatment 68) was 60. The “DRS-2 Total score” value ([2]; 8 mg at bedtime, before treatment 138) was 141, the “Epworth Sleepiness Scale (ESS) score” value ([2]; 8 mg each night at bedtime, before treatment 19) was 16 and the “concentrations of BDNF in neurons” value [3] was “increased concentrations of BDNF in neurons”. The MMSE scores [4] was “did not show a change”, the afternoon anxiety [4] was “no longer of concern” and the anhedonia [4] was “absent”. The appetite [4] was “improved”, the “confusional episodes, intensity” value [4] was “reduced in intensity” and the hallucinations [4] was “continued in remission”. The irritability [4] was “markedly better”, the social withdrawal [4] was “absent” and the sleep each night ([4]; 8 mg then 16 mg by mouth at bedtime, before treatment 3-4 hours) was 7 h. The NPI-Q appetite ([4]; before treatment 1) was 1, the NPI-Q delusions ([4]; before treatment 1) was 0 and the NPI-Q agitation ([4]; before treatment 2) was 0. For the same compound, the “episodes of incontinence at night” value ([4]; before treatment 4 or more episodes per night) was 2 episodes, the NPI-Q nighttime behaviors ([4]; before treatment 6) was 1 and the “NPI-Q score (total)” value ([4]; before treatment 11) was 2. The “Apathy Scale (Starkstein et al.) score” value ([4]; before treatment 31) was 37, the “confusional episodes, frequency” value ([4]; before treatment once daily) was “half as frequent” and the “agonist potency relative to melatonin” value (melatonin-2 receptor) was “more potent at these sites than melatonin itself”. For the same compound, the “recovery of the liver after reperfusion” value [5] was “improved recovery of the liver after reperfusion”.
